This is an account of results in PubChem BioAssay (NCI).

The term TGI denotes the concentration giving total growth inhibition. A word on the GI50: it is the concentration at which growth is held to half of that of the control.

SMILES strings stand for the structures.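 96-well plates; 48 h exposure; 5 concentrations. Endpoints by linear interpolation between flanking doses. Not reached: highest tested concentration assigned. Abbreviation: GI50, concentration required for 50% inhibition of growth. TGI marks complete inhibition of growth.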 A value given as a limit tells only on which side of the number the result lay.

Some test systems named below: ACHN renal; HOP-92 NSCLC; COLO 205 colon; DMS 273 small cell lung; HCT-15 colon; SNB-78 CNS; NCI-H23 lung; SNB-19 CNS; M14 melanoma; DMS 114 small cell lung.
Assay in all cases: DTP human tumour cell line panel, 48 h

For the compound `Nc1c([N+](=O)[O-])nc(Cl)c2nncn12`, the TGI in the test with ACHN renal was above 100 µM; in the test on HOP-92 NSCLC it was above 100 µM; in the test on COLO 205 colon it was above 65 µM; in the test on DMS 273 small cell lung, 31.3 µM; in the test on HCT-15 colon it was 42.4 µM; in the test on SNB-78 CNS, above 100 µM. Besides, the TGI is above 100 µM in the test on NCI-H23 lung, above 100 µM in the test with SNB-19 CNS, above 100 µM with M14 melanoma and above 57.4 µM in the test on DMS 114 small cell lung.

As to `CC12CCC(=O)N1c1ccc([N+](=O)[O-])cc1N2` (stereo unspecified), the TGI in the test on ACHN renal, in the test on COLO 205 colon, in the test on DMS 273 small cell lung, in the test with HCT-15 colon, in the test on SNB-78 CNS and in the test with NCI-H23 lung was above 100 µM in each case. For the same compound, the TGI with SNB-19 CNS, in the test on M14 melanoma and in the test with DMS 114 small cell lung was above 100 µM each time.

Consider `CCC1(O)C(=O)OCc2c1cc1n(c2=O)Cc2cc3c(NC(=O)CN)cccc3nc2-1` (stereo unspecified), for which the GI50 with ACHN renal is 0.187 µM; in the test on HOP-92 NSCLC it was 2.47 µM; in the test on COLO 205 colon, 5 µM; in the test with DMS 273 small cell lung it was 0.0963 µM; in the test on HCT-15 colon it was 5.22 µM; in the test on SNB-78 CNS it was 8.13 µM. Also, the values for the GI50 in the test with NCI-H23 lung, in the test with SNB-19 CNS and in the test on M14 melanoma were 0.27 µM, 0.492 µM and 0.532 µM, respectively. The TGI in the test on ACHN renal was 2.71 µM; in the test with HOP-92 NSCLC it was 24.1 µM; in the test on COLO 205 colon, 46.6 µM; in the test with DMS 273 small cell lung, 1.83 µM; in the test with HCT-15 colon, above 100 µM; with SNB-78 CNS, above 100 µM. Moreover, the TGI was 2.58 µM in the test with NCI-H23 lung, above 100 µM with SNB-19 CNS and 8.73 µM in the test on M14 melanoma.

Regarding `O=C(CC1SC(=Nc2ccccc2Cl)NC1=O)Nc1ccc(Cl)cc1Cl` (stereo unspecified), the TGI in the test on ACHN renal, in the test with HOP-92 NSCLC, in the test on COLO 205 colon, in the test on SNB-78 CNS, in the test on NCI-H23 lung and in the test with SNB-19 CNS was above 100 µM each time. For the same compound, the TGI in the test with M14 melanoma and in the test on DMS 114 small cell lung was above 100 µM throughout.

Regarding `CC(C)=CC(=O)N(C)C1C2CN3CCC(O2)C13` (stereo unspecified), the TGI in the test with ACHN renal, in the test on COLO 205 colon, in the test on DMS 273 small cell lung, with HCT-15 colon, in the test on SNB-78 CNS and in the test with NCI-H23 lung was above 100 µM throughout. Moreover, the TGI in the test on SNB-19 CNS, in the test with M14 melanoma and in the test with DMS 114 small cell lung was above 100 µM throughout.

`Cc1ccc(NC(=O)CC2C(=O)Nc3ccccc3S2(=O)=O)c(C)c1` (stereo unspecified): the TGI in the test on ACHN renal was 39.1 µM; with HOP-92 NSCLC, 31 µM; in the test on DMS 273 small cell lung, 25.8 µM; in the test on HCT-15 colon, 30.3 µM; in the test with SNB-78 CNS, 56 µM; with NCI-H23 lung, 37.2 µM. The TGI in the test with SNB-19 CNS was 32.6 µM; in the test with M14 melanoma, 26.2 µM; with DMS 114 small cell lung it was 39.2 µM.

As for `N#CC(c1ccccn1)c1nc2ccccc2[nH]1` (stereo unspecified), the TGI in the test with ACHN renal, with COLO 205 colon, in the test on SNB-78 CNS, in the test with NCI-H23 lung, in the test on SNB-19 CNS and with M14 melanoma was above 100 µM in each case. The same compound returned a concentration for total growth inhibition (TGI) in the test with DMS 114 small cell lung above 100 µM.

For `C=CNC(=O)NC(=O)CSc1nnc(-c2ccccc2NC(=O)C(F)(F)F)c(=O)[nH]1`, the TGI with HOP-92 NSCLC was 86.6 µM; with COLO 205 colon it was above 100 µM; in the test with DMS 273 small cell lung, above 100 µM; in the test with HCT-15 colon it was above 100 µM; in the test on SNB-78 CNS, above 100 µM; in the test on NCI-H23 lung, above 100 µM. The concentration for total growth inhibition (TGI) was above 100 µM with SNB-19 CNS, above 100 µM in the test with M14 melanoma and 43.1 µM in the test with DMS 114 small cell lung.

In the case of `O=S(=O)(/C=C/C(=C/c1ccccc1)S(=O)(=O)c1ccccc1)c1ccccc1`, the TGI came to 3.14 µM in the test with ACHN renal; 4.31 µM in the test with COLO 205 colon; 2.9 µM with DMS 273 small cell lung; 3.3 µM in the test on HCT-15 colon; 3.56 µM with NCI-H23 lung; 3.18 µM in the test with SNB-19 CNS. Also, the TGI came to 2.57 µM in the test with M14 melanoma and 3.32 µM in the test on DMS 114 small cell lung.

With `NC(=O)C(=O)C1CCC2=C(Sc3ccccc3N2)C1=O` (stereo unspecified), the TGI in the test with ACHN renal, with HOP-92 NSCLC, with COLO 205 colon, in the test on HCT-15 colon, with SNB-78 CNS and with NCI-H23 lung was above 100 µM throughout. The concentration for total growth inhibition (TGI) with SNB-19 CNS, in the test on M14 melanoma and with DMS 114 small cell lung was above 100 µM in each case.

Take `COC1=C(OC)C(=O)C(SC/C=C(\C)CCCC(C)CCCC(C)CCCC(C)C)=CC1=O` (stereo unspecified): the GI50 in the test on ACHN renal is 2.04 µM; in the test on HOP-92 NSCLC, 1.41 µM; in the test with COLO 205 colon it was 8.49 µM; in the test with HCT-15 colon, 1.38 µM; in the test on NCI-H23 lung it was 1.37 µM; with SNB-19 CNS it was 1.5 µM. Further, in the test on M14 melanoma, the GI50 was 0.743 µM. Further, the concentration for total growth inhibition (TGI) with ACHN renal is above 100 µM; with HOP-92 NSCLC it was 6.65 µM; with COLO 205 colon it was above 100 µM; in the test on HCT-15 colon, above 100 µM; in the test on NCI-H23 lung it was 36.1 µM; in the test with SNB-19 CNS, above 100 µM. In the test on M14 melanoma, the TGI is above 100 µM.

As to `Cc1cccc2c3c(sc12)C(c1ccc(Cl)cc1)C(C#N)=C(N)O3` (stereo unspecified), the GI50 with ACHN renal was 0.834 µM; in the test on HOP-92 NSCLC, 1.32 µM; in the test with COLO 205 colon, 0.435 µM; in the test with HCT-15 colon, 0.374 µM; in the test on NCI-H23 lung it was 0.436 µM; in the test with SNB-19 CNS, 0.452 µM. Moreover, the GI50 in the test on M14 melanoma is 0.326 µM. The TGI is 14.1 µM in the test on ACHN renal; 19 µM with HOP-92 NSCLC; 4.52 µM in the test on COLO 205 colon; 2.81 µM with HCT-15 colon; 10.4 µM in the test on NCI-H23 lung; 12.6 µM with SNB-19 CNS. The TGI in the test on M14 melanoma stood at 12.8 µM.

In the case of `OCCNC1c2cc(Cl)ccc2-c2c(Cl)cc(Cl)cc21` (stereo unspecified), the TGI with ACHN renal is 67 µM; with HOP-92 NSCLC, 55.8 µM; in the test with COLO 205 colon, above 100 µM; with HCT-15 colon, above 100 µM; in the test with NCI-H23 lung it was above 100 µM; in the test with SNB-19 CNS, above 100 µM. The TGI in the test with M14 melanoma was above 100 µM.
